Measurements: US10106782B2, “High-titer HCV full-length genotype 2B infectious cell culture systems and applications thereof” (Hvidovre Hospital, priority 2013, dated 2018)
Entries after “also recorded” stand apart in the source; their conditions may differ.

Tests used:
[1] = tested on: genotype 1a (strain TN) full-length virus; assay: Antiviral treatment of HCV infected Huh7.5 cultures, high throughput assay, virus TN; format: cell-based, hepatitis C virus; conditions: for inhibition of virus (concentration-response): TN(1a) in Huh7.5 cells, non-cytotoxic drug concentrations; for EC50 / sensitivity of virus, stated in words: TN(1a), numbers only in FIG. 11
Description: (§1) HCV infected cultures were treated with NS3 Protease, NS5A, and NS5B polymerase inhibitors (purchased from Acme Bioscience) in a high throughput assay. Immunostaining of fixed 96-well plates was performed using anti-core C7- and anti-NS5A 9E10 at dilutions 1/450 and 1/1000, respectively.
(§2) Concentration-response curves and EC50 values were calculated. The non-cytotoxic dose ranges for all drugs were determined with a cytotoxicity assay (CellTiter 96 AQueous One Solution Cell Proliferation Assay, Promega).
(§3) HCV genetic divergence influences the sensitivity to lead direct acting antivirals. Our developed full-length culture systems permit the study of frontline HCV DAAs in the context of the complete HCV life cycle. Thus, we determined the efficacy of DAAs targeting different viral proteins against genotype 1a (strain TN), 2a (strain J6 and recombinant J6core-NS2/JFH18, referred to as JFH1, since it has the JFH1 protease, NS5A and NS5B), and 2b (strains DH8, J8, and DH10). For 2b viruses we used 3rd passage DH8_LSG, 5th passage J8cc, and 3rd passage DH10_LSG (FIGS. 6-10).

[2] = tested on: 2a recombinant J6core-NS2/JFH1, referred to as JFH1; assay: Antiviral treatment of HCV infected Huh7.5 cultures, high throughput assay, virus JFH1; format: cell-based, hepatitis C virus; conditions: for inhibition of virus (concentration-response): JFH1(2a) in Huh7.5 cells, non-cytotoxic drug concentrations
Description: as §1, §2, §3

[3] = tested on: genotype 2a (strain J6) full-length virus; assay: Antiviral treatment of HCV infected Huh7.5 cultures, high throughput assay, virus J6; format: cell-based, hepatitis C virus; conditions: for inhibition of virus (concentration-response): J6(2a) in Huh7.5 cells, non-cytotoxic drug concentrations; for EC50 / sensitivity of virus, stated in words: J6(2a), numbers only in FIG. 11
Description: as §1, §2, §3

[4] = tested on: genotype 2b strain DH8 (3rd passage DH8_LSG); assay: Antiviral treatment of HCV infected Huh7.5 cultures, high throughput assay, virus DH8; format: cell-based, hepatitis C virus; conditions: DH8(2b) in Huh7.5 cells; non-cytotoxic drug concentrations
Description: as §1, §2, §3

[5] = tested on: genotype 2b strain J8 (5th passage J8cc); assay: Antiviral treatment of HCV infected Huh7.5 cultures, high throughput assay, virus J8; format: cell-based, hepatitis C virus; conditions: for inhibition of virus (concentration-response): J8(2b) in Huh7.5 cells, non-cytotoxic drug concentrations
Description: as §1, §2, §3

[6] = tested on: genotype 2b strain DH10 (3rd passage DH10_LSG); assay: Antiviral treatment of HCV infected Huh7.5 cultures, high throughput assay, virus DH10; format: cell-based, hepatitis C virus; conditions: DH10(2b) in Huh7.5 cells; non-cytotoxic drug concentrations
Description: as §1, §2, §3

Huh7.5 cells [7] = assay: Transfection of Huh7.5 cells with RNA transcripts of full-length HCV recombinants; format: cell-based; conditions: for HCV positive cells detected / HCV infectivity titers: after transfection; for spread of infection (≥80% HCV-antigen positive cells): day after transfection
Description: (§4) Transfection and passage of recombinant full-length HCV in Huh7.5 cells. Transfections with RNA transcripts were performed as reported. For viral passage, cell free supernatants were incubated with […] Huh7.5 cells overnight. Cultures were split every 2-3 days and progression of infection was monitored by immunostaining on cells seeded in slides and co-stained with primary antibodies anti-core C7-50 (Enzo Life Sciences) and anti-NS5A 9E108, at dilution 1/25010. Infectivity titers expressed as Log 10 Focus Forming Units (FFU)/mL were determined as described. To improve staining, we used a mixture of anti-core C7- and anti-NS5A 9E10 at dilutions 1/450 and 1/1000, respectively. HCV RNA titers (IU/mL) on passage supernatants with peak infectivity titers were determined as previously described.

Huh7.5 cells [8] = assay: Viral passage of recombinant full-length HCV to naive Huh7.5 cells; format: cell-based
Description: as §4

Compound | inhibition of virus (concentration-response) [1] | inhibition of virus (concentration-response) [2] | inhibition of virus (concentration-response) [3] | inhibition of virus (concentration-response) [4] | inhibition of virus (concentration-response) [5] | inhibition of virus (concentration-response) [6] | HCV infectivity titers (Huh7.5 cells [7]) | spread of infection (≥80% HCV-antigen positive cells) (Huh7.5 cells [7]) [days] | also measured
Cn1c(C2(NC(=O)c3ccc4c(C5CCCC5)c(-c5ncc(Br)cn5)n(C)c4c3)CCC2)nc2ccc(/C=C/C(=O)O)cc21 [BI207127] | inhibit all viruses in a dose dependent manner | inhibit all viruses in a dose dependent manner | inhibit all viruses in a dose dependent manner | inhibit all viruses in a dose dependent manner | inhibit all viruses in a dose dependent manner | inhibit all viruses in a dose dependent manner | – | – | EC50 / sensitivity of virus, stated in words [1]: most sensitive virus
CCc1cc(CC[C@]2(C3CCCC3)CC(O)=C(Cc3nc4nc(C)cc(C)n4n3)C(=O)O2)cc(CC)n1 [Filibuvir] | inhibited TN(1a) in a dose dependent manner | no or very limited inhibition; also recorded: not inhibited | no or very limited inhibition; also recorded: not inhibited | no or very limited inhibition; also recorded: not inhibited | no or very limited inhibition; also recorded: not inhibited | no or very limited inhibition; also recorded: not inhibited | – | – | –
C=C[C@@H]1C[C@]1(NC(=O)[C@@H]1C[C@@H]2CN1C(=O)[C@H](C(C)(C)C)NC(=O)O[C@@H]1C[C@H]1CCCCCc1nc3ccc(OC)cc3nc1O2)C(=O)NS(=O)(=O)C1CC1 [MK-5172] | – | – | – | – | – | – | – | – | EC50 / sensitivity of virus, stated in words [1]: most sensitive viruses; EC50 / sensitivity of virus, stated in words ([2]; JFH1(2a), numbers only in FIG. 11): most sensitive viruses
CC(C)C(=O)OC[C@H]1O[C@@H](n2ccc(N)nc2=O)[C@](C)(F)[C@@H]1OC(=O)C(C)C [Mericitabine] | inhibited 1a, 2a, and 2b viruses in a dose-dependent manner | inhibited 1a, 2a, and 2b viruses in a dose-dependent manner | inhibited 1a, 2a, and 2b viruses in a dose-dependent manner | inhibited 1a, 2a, and 2b viruses in a dose-dependent manner | inhibited 1a, 2a, and 2b viruses in a dose-dependent manner | inhibited 1a, 2a, and 2b viruses in a dose-dependent manner | – | – | EC50 / sensitivity of virus, stated in words [3]: most sensitive virus
COc1ccc2c(O[C@@H]3C[C@H]4C(=O)N[C@]5(C(=O)NS(=O)(=O)C6CC6)C[C@H]5/C=C\CCCCN(C)C(=O)[C@@H]4C3)cc(-c3nc(C(C)C)cs3)nc2c1C [Simeprevir] | – | – | – | – | – | – | – | – | EC50 / sensitivity of virus, stated in words ([5]; J8(2b), numbers only in FIG. 11): lower EC50
CC(C)OC(=O)[C@H](C)N[P@](=O)(OC[C@H]1O[C@@H](n2ccc(=O)[nH]c2=O)[C@](C)(F)[C@@H]1O)Oc1ccccc1 [Sofosbuvir] | inhibited 1a, 2a, and 2b viruses in a dose-dependent manner | inhibited 1a, 2a, and 2b viruses in a dose-dependent manner | inhibited 1a, 2a, and 2b viruses in a dose-dependent manner | inhibited 1a, 2a, and 2b viruses in a dose-dependent manner | inhibited 1a, 2a, and 2b viruses in a dose-dependent manner | inhibited 1a, 2a, and 2b viruses in a dose-dependent manner | – | – | EC50 / sensitivity of virus, stated in words [3]: most sensitive virus
CC(C)(C)C#Cc1cc(N(C(=O)[C@H]2CC[C@H](C)CC2)[C@H]2CC[C@H](O)CC2)c(C(=O)O)s1 [VX-222] | inhibited TN(1a) in a dose dependent manner | no or very limited inhibition; also recorded: not inhibited | no or very limited inhibition; also recorded: not inhibited | no or very limited inhibition; also recorded: not inhibited | no or very limited inhibition; also recorded: not inhibited | no or very limited inhibition; also recorded: not inhibited | – | – | EC50 / sensitivity of virus, stated in words [1]: most potent inhibitor
DH8CF: full-length HCV genotype 2b consensus clone of strain DH8, SEQ ID NO 1, KF420335 | – | – | – | – | – | – | – | – | HCV positive cells detected (Huh7.5 cells [7]): No HCV positive cells were detected
DH8_LSG/L758S/A1790T/V1951A/I2439T: DH8 full-length recombinant named DH8cc, SEQ ID NO 8, KF420336 | – | – | – | – | – | – | 4.1 Log 10 FFU/mL | 6 | HCV infectivity titers (Huh7.5 cells [8]; 1st passage): 4.4 Log 10 FFU/mL; HCV infectivity titers (Huh7.5 cells [8]; 2nd passage): 4.3 Log 10 FFU/mL
DH8_LSG/L884P/V1951A/I2440T/L3021F: efficient full-length infectious DH8 recombinant, SEQ ID NO 7, KF420337 | – | – | – | – | – | – | 3.8 Log 10 FFU/mL | 6 | HCV infectivity titers (Huh7.5 cells [8]; 2nd passage): 3.9 Log 10 FFU/mL
DH8_LSG: DH8CF containing LSG mutations F1468L/A1676S/D3001G, SEQ ID NO:2 | – | – | – | – | – | – | 3.1-3.9 Log 10 FFU/mL | 36 to 53 | HCV positive cells detected (Huh7.5 cells [7]): ≥ 1 days; HCV infectivity titers (Huh7.5 cells [8]; 1st passage): 3.1-4.2 Log 10 FFU/mL; spread of infection (Huh7.5 cells [8]; 1st viral passage): 5 to 8 days; HCV infectivity titers (Huh7.5 cells [8]; 3rd passage of transfection 1 culture A): 4.7 Log 10 FFU/mL
J8_LSG/L758S/A1790T/V1951A/I2440T: efficient J8 virus with authentic NS3 protease, SEQ ID NO 15, KF420339 | – | – | – | – | – | – | 3.8 Log 10 FFU/mL | 5 | –
J8cc/M292L/L612M/G1154A/N1217Y/Q1763R/I2440T: J8 cell culture, high titer recombinant, SEQ ID NO 14, KF420338 | – | – | – | – | – | – | 4.7 Log 10 FFU/mL | 3 | –
